The values that follow come from patent US20080242681A1, “N-4-(6-(Hetero)Aryl-Pyrimidin-4-Ylaminophenyl)-Benzenesulfonamides as Kinase Inhibitors” (Altana Pharma AG, priority 2004, published 2008).

SMILES strings stand for the structures. Structures can show the parent of a compound that is named as a salt. Some results are limits rather than exact numbers.

T2 sequence (P05771 whole entry): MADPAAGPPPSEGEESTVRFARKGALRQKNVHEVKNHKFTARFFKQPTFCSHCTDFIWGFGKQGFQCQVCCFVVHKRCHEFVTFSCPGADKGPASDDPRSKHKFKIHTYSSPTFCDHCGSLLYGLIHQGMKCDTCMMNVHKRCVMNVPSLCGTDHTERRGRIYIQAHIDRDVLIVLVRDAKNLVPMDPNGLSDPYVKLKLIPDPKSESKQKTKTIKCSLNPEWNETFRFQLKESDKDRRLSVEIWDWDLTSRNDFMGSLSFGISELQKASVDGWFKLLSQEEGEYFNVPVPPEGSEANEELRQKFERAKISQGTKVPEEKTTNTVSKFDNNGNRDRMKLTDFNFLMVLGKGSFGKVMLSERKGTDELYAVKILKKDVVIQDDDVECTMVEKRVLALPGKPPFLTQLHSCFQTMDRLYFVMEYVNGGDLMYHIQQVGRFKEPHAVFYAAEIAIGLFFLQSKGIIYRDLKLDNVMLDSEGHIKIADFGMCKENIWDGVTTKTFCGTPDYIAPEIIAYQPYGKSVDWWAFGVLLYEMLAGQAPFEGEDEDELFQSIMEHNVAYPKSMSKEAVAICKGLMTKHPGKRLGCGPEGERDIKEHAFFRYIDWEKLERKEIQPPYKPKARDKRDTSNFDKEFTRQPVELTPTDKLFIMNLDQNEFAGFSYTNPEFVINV

The first assay has as its target T1, PKCε (Homo sapiens, UniProt Q02156).
T1 construct: purchased Panvera
T1 sequence (Q02156 1-737): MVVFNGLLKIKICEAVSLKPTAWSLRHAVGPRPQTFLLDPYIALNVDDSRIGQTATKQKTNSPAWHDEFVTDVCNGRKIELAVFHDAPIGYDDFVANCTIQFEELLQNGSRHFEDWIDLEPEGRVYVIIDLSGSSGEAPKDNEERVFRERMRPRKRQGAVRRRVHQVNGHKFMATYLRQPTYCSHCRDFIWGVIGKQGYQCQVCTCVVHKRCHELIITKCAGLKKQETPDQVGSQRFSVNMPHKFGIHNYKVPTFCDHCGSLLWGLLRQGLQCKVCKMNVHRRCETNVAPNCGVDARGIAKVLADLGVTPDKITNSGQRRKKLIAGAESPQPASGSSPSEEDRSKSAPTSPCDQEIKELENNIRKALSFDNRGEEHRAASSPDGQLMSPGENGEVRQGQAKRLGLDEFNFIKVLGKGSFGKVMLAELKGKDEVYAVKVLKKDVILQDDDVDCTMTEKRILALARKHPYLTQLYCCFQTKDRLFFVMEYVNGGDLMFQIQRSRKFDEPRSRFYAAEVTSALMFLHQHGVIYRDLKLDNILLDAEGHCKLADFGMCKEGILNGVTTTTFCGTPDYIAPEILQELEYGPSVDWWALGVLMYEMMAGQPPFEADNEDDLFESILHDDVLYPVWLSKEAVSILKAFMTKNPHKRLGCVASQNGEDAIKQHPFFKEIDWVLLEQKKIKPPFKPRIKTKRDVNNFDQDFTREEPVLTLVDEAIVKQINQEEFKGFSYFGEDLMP
As to the kind of experiment: Protein Kinase C ε assay (SPA). The following applies: human recombinant PKCε, PKCη pseudosubstrate, read-out: IC50, inhibition of PKC ε. It counts as biochemical. The method, then: (§1) The compounds of formula 1 are tested for their activity on different protein kinases and PKC isoforms using a scintillation proximity assay (SPA, Amersham International plc). ^33P-labeled peptides are captured onto streptavidin coated yttrium silicate SPA beads. β-particles, emitted from the captured ^33P-labeled substrate in close proximity to the bead are able to excite the scintillant, resulting in the generation of quantifiable light. The assay is performed in a 96-well polystyrene microtiterplate (1450-514, Isoplates, Wallac, Turku, Finland). The reaction mixture (50 μl) contains 10 μl of the test compound together with 10 μl of the relevant kinase, diluted in the relevant dilution buffer, 5 μl of 10 μM phorbol myristate acetate (PMA) in H2O, 5 μl of 1.6 mM phosphatidylserine (Sigma-Aldrich Chemie GmbH, Stein-heim, Germany) in 20 mM Tris/HCL buffer pH 7.4, 5 μl of 0.3% BSA in H2O, 5 μl of 30 μM relevant substrate and 10 μl of 5 μM ATP and 0.1 μCi of ^33P-ATP (Amersham, Freiburg, Germany) in 200 mM Tris/HCL pH 7.5 and 200 mM MgCl2. Incubation is performed for 40 min at room temperature (RT) without shaking. Reaction is stopped by adding 150 μl of cold stop solution containing 10 mM ATP, 5 mM EGTA pH 7.5, 0.1% Triton X-100 and 0.2 mg streptavidin coated yttrium silicate SPA beads (Amersham, RPNQ 0012). The sealed plate is incubated for 60 min at RT. Thereafter the MTP is counted in a Microbeta Jet (Wallac). IC50 measurement is performed on a routine basis by incubation a serial dilution of inhibitor at concentrations ranging between 0.01 and 100 μM according to the method described above. Background values are the signals of the reaction mixture without addition of the relevant kinase and are subtracted from all values. 100% values are the signals of the reaction mixture without addition of inhibitors.
(§2) Dependent on the efficacy of the inhibitors In the various test systems, corresponding IC50 values are calculated from concentration-inhibition curves by nonlinear regression analysis using the program GraphPad Prism (GraphPad Software Inc., San Diego, Calif.).
Human recombinant PKCε was obtained from Panvera and is used under the assay conditions as described above (Section A.1). The enzyme is diluted in PKC dilution buffer containing 1 mM Hepes pH 7.4, 0.5 mM DTT and 0.001% Triton X-100. The kinase reaction is performed with the biotinylated PKCη pseudosubstrate solved in H2O.
A word on the IC50: it is the concentration that gives 50% inhibition. With `CC(=O)c1ccc(-c2cc(Nc3ccc(NS(=O)(=O)c4c(F)cccc4F)cc3)ncn2)cc1` [Example 27, N-{4-[6-(4-Acetyl-phenyl)-pyrimidin-4-ylamino]-phenyl}-2,6-difluoro-benzenesulfonamide], the IC50 was 4 to 21 µM.

As for `O=S(=O)(Nc1ccc(Nc2cc(-c3ccc(OCCCN4CCOCC4)cc3)ncn2)cc1)c1c(F)cccc1F` [Example 38, 2,6-Difluoro-N-(4-{6-[4-(3-morpholin-4-yl-propoxy)-phenyl]-pyrimidin-4-ylamino}-phenyl)-benzenesulfonamide], the IC50 lay in the range of 4 to 21 µM.

Take `CN1CCN(CCOc2ccc(-c3cc(Nc4ccc(NS(=O)(=O)c5c(F)cccc5F)cc4)ncn3)cc2)CC1` [Example 47, 2,6-Difluoro-N-[4-(6-{4-[2-(4-methyl-piperazin-1-yl)-ethoxy]-phenyl}-pyrimidin-4-ylamino)-phenyl]-benzenesulfonamide]: the IC50 is 4 to 21 µM.

Another assay has as its target T2, PKCβ1 (Homo sapiens, UniProt P05771).
T2 construct: purchased Panvera
In words: Protein Kinase Cβ1 assay (SPA). In kind it is biochemical. As to conditions: human recombinant PKCβ1, SPA, biotinylated PKCα pseudosubstrate, 0.5 mM CaCl2; read-out: IC50, inhibition of PKC β1. Here is the method: as §1, §2
Human recombinant PKCβ1 was obtained from Panvera and is used under the assay conditions as described above (Section A.1). The enzyme is diluted in PKC dilution buffer containing 1 mM Hepes pH 7.4, 0.5 mM DTT and 0.001% Triton X-100. The assay additionally contains 0.5 mM CaCl2. The kinase reaction is performed with the biotinylated PKCα pseudosubstrate solved in H2O. The examples 29, 45, 52, 128 and 139 inhibit PKC β1 in this assay with an IC50 between 2 and 40 μM.
On to `COc1ccc(-c2cc(Nc3ccc(NS(=O)(=O)c4ccccc4F)cc3)ncn2)cc1` [Example 29, 2-Fluoro-N-{4-[6-(4-methoxy-phenyl)-pyrimidin-4-ylamino]-phenyl}-benzenesulfonamide], for which the IC50 is 2 to 40 µM.

Turning to `COc1ccc(S(=O)(=O)Nc2ccc(Nc3cc(-c4ccc(OCCCN5CCOCC5)cc4)ncn3)cc2)cc1` [Example 45, 4-Methoxy-N-(4-{6-[4-(3-morpholin-4-yl-propoxy)-phenyl]-pyrimidin-4-ylamino}-phenyl)-benzenesulfonamide], the IC50 was 2 to 40 µM.

Turning to `CN(C)CCn1ccc2cc(-c3cc(Nc4ccc(NS(=O)(=O)c5c(F)cccc5F)cc4)ncn3)ccc21` [Example 139, N-(4-{6-[1-(2-Dimethylamino-ethyl)-1H-indol-5-yl]-pyrimidin-4-ylamino}-phenyl)-2,6-difluoro-benzenesulfonamide], the IC50 lay in the range of 2 to 40 µM.

For another assay, the target named is T3, PKCθ (Homo sapiens, UniProt Q04759).
T3 construct: made in house; host or cells: Sf21 insect cells
T3 sequence (Q04759 whole entry): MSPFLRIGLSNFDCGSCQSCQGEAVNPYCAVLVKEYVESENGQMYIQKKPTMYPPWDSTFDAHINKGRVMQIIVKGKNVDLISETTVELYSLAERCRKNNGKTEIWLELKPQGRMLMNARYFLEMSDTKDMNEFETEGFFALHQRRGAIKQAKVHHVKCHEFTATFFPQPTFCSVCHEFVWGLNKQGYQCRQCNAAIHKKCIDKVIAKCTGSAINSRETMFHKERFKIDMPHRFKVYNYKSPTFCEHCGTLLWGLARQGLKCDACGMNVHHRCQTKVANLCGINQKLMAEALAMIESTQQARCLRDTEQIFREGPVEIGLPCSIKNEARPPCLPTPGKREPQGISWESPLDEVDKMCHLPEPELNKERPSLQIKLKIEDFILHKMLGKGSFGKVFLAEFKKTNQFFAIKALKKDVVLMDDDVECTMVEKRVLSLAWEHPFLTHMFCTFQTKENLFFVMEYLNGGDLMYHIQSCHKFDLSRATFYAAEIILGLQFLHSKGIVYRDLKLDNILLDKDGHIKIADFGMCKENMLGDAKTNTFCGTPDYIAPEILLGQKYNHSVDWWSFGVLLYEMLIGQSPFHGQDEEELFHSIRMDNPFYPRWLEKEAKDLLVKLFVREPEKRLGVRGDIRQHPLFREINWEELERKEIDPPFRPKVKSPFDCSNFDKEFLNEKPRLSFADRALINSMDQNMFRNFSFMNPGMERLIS
As to the kind of experiment: Protein Kinase C θ assay (SPA). It counts as biochemical. The following applies: human recombinant PKCθ from Sf21 insect cells, read-out: IC50, inhibition of PKC θ. Here is the method:
as §1, §2
Human recombinant nickel bead purified PKCθ from Sf21 insect cells is used under the assay conditions as described above (Section A.1). The enzyme is diluted in PKC dilution buffer containing 1 mM Hepes pH 7.4, 0.5 mM DTT and 0.001% Triton X-100. The kinase reaction is performed with the biotinylated PKCθ pseudosubstrate solved in H2O. The examples 8, 22, 46, 115, 118 and 161 inhibit PKC 9 in this assay with an IC50<1 μM.
As to `O=S(=O)(Nc1ccc(Nc2cc(-c3ccccc3)ncn2)cc1)c1c(F)cccc1F` [Example 8, 2,6-Difluoro-N-[4-(6-phenyl-pyrimidin-4-ylamino)-phenyl]-benzenesulfonamide], the IC50 is below 1 µM.

`COc1ccc(S(=O)(=O)Nc2ccc(Nc3cc(-c4cccc(OCCCN5CCOCC5)c4)ncn3)cc2)cc1` [Example 46, 4-Methoxy-N-(4-{6-[3-(3-morpholin-4-yl-propoxy)-phenyl]-pyrimidin-4-ylamino}-phenyl)-benzenesulfonamide]: the IC50 was below 1 µM.

As to `CC1Cc2cc(-c3cc(Nc4ccc(NS(=O)(=O)c5c(F)cccc5F)cc4)ncn3)ccc2O1` (centres unmarked) [Example 115, 2,6-Difluoro-N-{4-[6-(2-methyl-2,3-dihydro-benzofuran-5-yl)-pyrimidin-4-ylamino]-phenyl}-benzenesulfonamide], the IC50 is below 1 µM.

Turning to `O=S(=O)(Nc1ccc(Nc2cc(-c3ccc4c(ccn4CCN4CCCC4)c3)ncn2)cc1)c1ccc(F)c(Cl)c1` [Example 161, 3-Chloro-4-fluoro-N-(4-{6-[1-(2-pyrrolidin-1-yl-ethyl)-1H-indol-5-yl]pyrimidin-4-ylamino}-phenyl)-benzenesulfonamide formic acid salt], the IC50 is below 1 µM.

In the next assay the target is T4, PKCη (Homo sapiens, UniProt P24723).
T4 construct: made in house; host or cells: Sf21 insect cells
T4 sequence (P24723 whole entry): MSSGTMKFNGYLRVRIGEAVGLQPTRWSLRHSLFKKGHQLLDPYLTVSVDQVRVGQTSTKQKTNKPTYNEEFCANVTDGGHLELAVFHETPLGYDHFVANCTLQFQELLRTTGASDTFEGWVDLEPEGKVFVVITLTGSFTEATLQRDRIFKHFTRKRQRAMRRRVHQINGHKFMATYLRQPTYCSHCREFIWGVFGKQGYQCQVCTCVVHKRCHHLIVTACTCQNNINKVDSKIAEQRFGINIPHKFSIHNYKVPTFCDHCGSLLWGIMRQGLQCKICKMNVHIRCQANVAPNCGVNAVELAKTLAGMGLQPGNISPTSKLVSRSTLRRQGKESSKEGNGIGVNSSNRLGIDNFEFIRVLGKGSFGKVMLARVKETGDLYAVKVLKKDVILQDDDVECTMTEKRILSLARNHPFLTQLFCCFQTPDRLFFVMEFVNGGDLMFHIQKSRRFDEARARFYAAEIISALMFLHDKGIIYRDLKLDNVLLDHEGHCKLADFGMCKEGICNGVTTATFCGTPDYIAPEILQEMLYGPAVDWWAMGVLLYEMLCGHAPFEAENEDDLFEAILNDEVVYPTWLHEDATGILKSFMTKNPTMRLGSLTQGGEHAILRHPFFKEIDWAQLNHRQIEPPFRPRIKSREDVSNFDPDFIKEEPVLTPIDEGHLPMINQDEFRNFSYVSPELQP
In words: Protein Kinase C η assay (SPA). It counts as biochemical. The following applies: human recombinant PKCη from Sf21 insect cells, read-out: IC50, inhibition of PKC η. The method, then:
as §1, §2
Human recombinant nickel bead purified PKCη from Sf21 insect cells is used under the assay conditions as described above (Section A.1). The enzyme is diluted in PKC dilution buffer containing 1 mM Hepes pH 7.4, 0.5 mM DTT and 0.001% Triton X-100. The kinase reaction is performed with the biotinylated PKCη pseudosubstrate solved in H2O. The examples 52, 55, 118 and 135 inhibit PKC η in this assay with an IC50 between 6 and 50 μM.
For `Cc1ccc(S(=O)(=O)Nc2ccc(Nc3cc(-c4ccc(OCCCN5CCN(C)CC5)cc4)ncn3)cc2)cc1` [Example 55, 4-Methyl-N-[4-(6-{4-[3-(4-methyl-piperazin-1-yl)-propoxy]-phenyl}-pyrimidin-4-ylamino)-phenyl]-benzenesulfonamide], the IC50 was 6 to 50 µM.

As to `Cc1ccc(S(=O)(=O)Nc2ccc(Nc3cc(-c4ccc5c(ccn5CCCN(C)C)c4)ncn3)cc2)cc1` [Example 135, N-(4-{6-[1-(3-Dimethylamino-propyl)-1H-indol-5-yl]-pyrimidin-4-ylamino}-phenyl)-4-methyl-benzenesulfonamide], the IC50 lay within 6 to 50 µM.

For another assay, the target named is T5, PKCα (Homo sapiens, UniProt P17252).
T5 construct: purchased Panvera (Invitrogen GmbH, Karlsruhe, Germany)
As to the kind of experiment: Protein Kinase Cα assay (SPA). It counts as biochemical. As to conditions: human recombinant PKCα, biotinylated PKCα pseudosubstrate, 0.5 mM CaCl2, read-out: IC50, inhibition of PKCα. Here is the method: as §1, §2
Human recombinant PKCα was obtained from Panvera (Invitrogen GmbH, Karlsruhe, Germany) and is used under the assay conditions as described above (Section A.1). The enzyme is diluted in PKC dilution buffer containing 1 mM Hepes pH 7.4, 0.5 mM DTT and 0.001% Triton X-100. The assay additionally contains 0.5 mM CaCl2. The kinase reaction is performed with the biotinylated PKCα pseudosubstrate solved in H2O.
On to `O=S(=O)(Nc1ccc(Nc2cc(-c3cccc4ccccc34)ncn2)cc1)c1c(F)cccc1F` [Example 16, 2,6-Difluoro-N-[4-(6-naphthalen-1-yl-pyrimidin-4-ylamino)-phenyl]-benzenesulfonamide], for which the IC50 lay within 1 to 18 µM.

`O=S(=O)(Nc1ccc(Nc2cc(-c3ccc(OCCN4CCOCC4)cc3)ncn2)cc1)c1c(F)cccc1F` [Example 37, 2,6-Difluoro-N-(4-{6-[4-(2-morpholin-4-yl-ethoxy)-phenyl]-pyrimidin-4-ylamino}-phenyl)-benzenesulfonamide]: the 50% inhibitory concentration (IC50) was in the range of 1 to 18 µM.

For `O=S(=O)(Nc1ccc(Nc2cc(-c3ccc4[nH]ccc4c3)ncn2)cc1)c1c(F)cccc1F` [Example 119, 2,6-Difluoro-N-{4-[6-(1H-indol-5-yl)-pyrimidin-4-ylamino]-phenyl}-benzenesulfonamide], the concentration for half-maximal inhibition (IC50) was 1 to 18 µM.

As to `O=S(=O)(Nc1ccc(Nc2cc(-c3ccc4[nH]ccc4c3)ncn2)cc1)c1ccccc1F` [Example 120, 2-Fluoro-N-{4-[6-(1H-indol-5-yl)-pyrimidin-4-ylamino]-phenyl}-benzenesulfonamide], the half-inhibitory concentration (IC50) lay in the range of 1 to 18 µM.

With `CN1CCN(CCn2ccc3cc(-c4cc(Nc5ccc(NS(=O)(=O)c6ccc(F)cc6F)cc5)ncn4)ccc32)CC1` [Example 150, 2,4-Difluoro-N-[4-(6-{1-[2-(4-methyl-piperazin-1-yl)-ethyl]-1H-indol-5-yl}-pyrimidin-4-ylamino)-phenyl]-benzenesulfonamide formic acid salt], the IC50 is 1 to 18 µM.
